This is an account of results in US20050208147A1, “Isolation of bivittoside D from sea cucumber and activity thereof” (Council of Scientific and Industrial Research, priority 2004, published 2005).

The subject of assay [1] is trichophyton mentagrophytes. Kind of assay: In vitro antifungal MIC for molds (NCCLS M-38P). Type of assay: cell-based. As for the experimental part:
(§1) Extracts/fractions/pure compounds obtained from B. vitiensis were tested in in-vitro antifungal activity against five pathogenic fungi in terms of minimum inhibitory concentration (mic,mg/ml) following reference methods. Mics for yeasts: Candida albicans (ca), Cryptococcus neoformans (cn) and Sporothrix schenckii (spo) were determined by broth micro-dilution method according to guide lines of nccls documents m-27a1 (National Committee for Clinical Standards (1997) reference method for broth dilution. Antifungal susceptibility testing of yeast approved standards document m-27a, nccls, wayne, Pa.) In RPMI-1640 medium buffered at pH 7.0 with 0.165 m morpholine propane sulphonic acid (mops: Sigma USA moris; Mo.). Assays were performed in flat bottomed 96 wells microlitre plate. Stock solution of products were prepared in DMSO and diluted by two-fold serial dilution. […] The susceptibilities of molds Aspergillus fumigatus (af) and Frichophyton mentagrophytes (tm) were determined by the NCCLS proposed document m-38p2 (National Committee for Clinical laboratory Standards (1997) reference method for broth dilution antifungal susceptibility testing of Aspergillus, proposed standards document m-38 p, nccls, wayne, Pa.). […]

For assay [2], the system named is Aspergillus niger, A. oryzae, Penicillium citrinum, P. chrysogenum, Mucor spinescens, Cladosporium herbarium, Rhodotorula rubra, Trichophyton mentagrophytes, T. The settings on record: panel of eleven fungi; literature report; cited from earlier work.
For a further assay, the system named is Aspergillus fumigatus. Description: In vitro antifungal MIC for molds (NCCLS M-38P). The class given is cell-based. Also on record: mic against af: unit not given here. As for the experimental part: as §1
Another assay relates to Cryptococcus neoformans. Kind of assay: In vitro antifungal MIC, broth micro-dilution (NCCLS M-27A). The class given is cell-based. As for the experimental part: (§2) Extracts/fractions/pure compounds obtained from B. vitiensis were tested in in-vitro antifungal activity against five pathogenic fungi in terms of minimum inhibitory concentration (mic,mg/ml) following reference methods. Mics for yeasts: Candida albicans (ca), Cryptococcus neoformans (cn) and Sporothrix schenckii (spo) were determined by broth micro-dilution method according to guide lines of nccls documents m-27a1 (National Committee for Clinical Standards (1997) reference method for broth dilution. Antifungal susceptibility testing of yeast approved standards document m-27a, nccls, wayne, Pa.) In RPMI-1640 medium buffered at pH 7.0 with 0.165 m morpholine propane sulphonic acid (mops: Sigma USA moris; Mo.). Assays were performed in flat bottomed 96 wells microlitre plate. Stock solution of products were prepared in DMSO and diluted by two-fold serial dilution. The working suspension (0.5×103 to 2.5×103) of the innoculum, prepared spectrophotometrically (0.5 mc Farland turbidity standard) was made by a 1:50 dilution followed by a 1:20 dilution of the seeded broth in RPMI-1640. Suitable controls were maintained simultaneously. Plates were incubated at 35° C. and observed visually at 24 hr for ca and 48 hr cn and spo. The susceptibilities of molds Aspergillus fumigatus (af) and Frichophyton mentagrophytes (tm) were determined by the NCCLS proposed document m-38p2 (National Committee for Clinical laboratory Standards (1997) reference method for broth dilution antifungal susceptibility testing of Aspergillus, proposed standards document m-38 p, nccls, wayne, Pa.). In brief, cultures were grown on sabouraud dextrose agar at 35° C. until sporulation occurred. Spores were suspended in 0.85% normal saline and diluted in RPMI-1640 to yield 104 cf p/ml.
On the technique in general: Dilution methods test growth across graded concentrations, often in twofold steps.

The test system of the next assay is Sporothrix schenckii. The assay is described as above. The class given is cell-based. Here is the method: as §2
The test system of a further assay is Candida albicans. The assay is described as above. Type of assay: cell-based. Here is the method: as §2
The next assay relates to human spermatozoa. Description: Spermicidal activity in vitro, Sander Cramer assay. Type of assay: cell-based. Here is the method:
The spermicidal activity was determined by the Sander Cramer assay (Sander, F. V., Cramer, S. D., Human Fertility, (1941) Vol. 6, p-134) using physiological saline (0.85% NaCl). Aqueous solutions (1.0% i.e. 10 mg/ml) of different fractions of B. vitiensis were prepared in physiological saline, which were diluted further up to a concentration of 0.01%. Human semen (0.2 ml) was mixed with each test solution (1.0 ml) separately and vortexed for 10 s. A wet mount of each preparation was immediately examined under a phase contrast microscope. The lowest spermicidal concentration that completely immobilized 100% of the spermatozoa within 20 s. was referred to as MEC (minimum effective concentration). The activity was confirmed in three different semen samples with >50×10^6/ml sperm count and >50% motility.

Setting [3] is: read at 48 hr, tested at 1000-1.95 mg/ml.

Bivittoside-D [K007] returned a mic against tm in assay [1] of 1.56 mg/mL. Further, in assay [1] (tested at 1000-1.95 mg/ml), the “Mics against pathogenic fungi, tm” value is given as 1.56 μg/mi. In addition, in assay [2], the “antifungal activities (in words)” value is “significant antifungal activities”. This substance registered a mic against af in the assay on Aspergillus fumigatus (Aspergillus fumigatus) of 12.57. In the assay on Aspergillus fumigatus (aspergillus fumigates, tested at 1000-1.95 mg/ml), the “Mics against pathogenic fungi, Af” value came to 12.5 μg/mi. Besides, the mic against cn in the assay on Cryptococcus neoformans was determined as 6.25 mg/mL. Also, the “Mics against pathogenic fungi, Cn” value in the assay on Cryptococcus neoformans (setting [3]) was 6.25 μg/mi. This substance also yielded a mic against spo in the assay with Sporothrix schenckii of 6.25 mg/mL. Moreover, in the assay on Sporothrix schenckii (setting [3]), the “Mics against pathogenic fungi, spo” value was found to be 1.56 μg/mi. Also, the mic against ca in the assay on Candida albicans was 3.12 µg/mL. Moreover, the “Mics against pathogenic fungi, ca” value in the assay on Candida albicans (read at 24 hr, tested at 1000-1.95 mg/ml) amounted to 3.12 μg/mi. In addition, in the assay with human spermatozoa (in vitro model), the “spermicidal activity (in words)” value is reported as “promising spermicidal”. Further, the “Mec (minimum effective concentration)” value in the assay on human spermatozoa (lowest concentration that completely immobilized 100% of human spermatozoa within 20 s) came to 0.05%.
